# Assay results: US20260337229A1 (Seattle Children's Hospital (d/b/a Seattle Children's …, priority 2022, published 2026)
# Read-outs that look alike come from different tables or passages of the source. Residues, ends and D or L forms follow the SMILES beside them.
# Assays:
# [1] = Dose escalation study in DIO rats; format: in vivo, male DIO Sprague Dawley rats
# From the text: Male DIO Sprague Dawley rats (n=4) were fed 60% HF diet (formula: D12492; Research Diets, Inc., New Brunswick, NJ, USA; 5.21 kcal/g) for 16 weeks prior to the start of the study. Rats were changed to being singly housed and allowed to acclimate for at least one week prior to the start of this study. Animals averaged 844.15 Z 99.95 g at baseline. Baseline measures of body weight, food intake, and water intake were taken for 6 days before drug administration began. Doses for the dose escalation study included 1, 2, 5, 10, 20, 50, and 100 nmol/kg. Body weight, food and water intake were assessed just prior to the start of the dark cycle. […] In certain embodiments, the greatest anorectic effect achieved with ASK1476 occurred at the 300 nmol/kg/d dose yielding a ~34% reduction in caloric intake while ASK2131 dosed at 2 nmol/kg/d yielded a ~55% reduction in caloric intake.
# [2] = in words; cited from earlier work
# [3] = sc, mouse, marked [2], cited from earlier work
# [4] = peripheral administration; in words; cited from earlier work
# [5] = test system: amygdala activation; conditions: 24 IU, but not lower (12 IU) or higher (48 IU) doses; in words; cited from earlier work
# [6] = cited from earlier work
# [7] = 22-day long-term study in DIO rats (body weight, food and water intake); format: in vivo, male Sprague Dawley rats
# From the text: For studies utilizing a DIO rat model, male Sprague Dawley rats (CD-IGS rats, strain 001; approximately 4 weeks of age; 51-75 g) purchased from Charles River Laboratories (Wilmington, MA, USA). These rats were fed a diet of 60% calories from fat (Formula: D12492; Research Diets, Inc., New Brunswick, NJ, USA; 5.21 kcal/g) for 4.5 to 6 months prior to the start of the study to induce obesity. For studies utilizing lean rats, male Sprague Dawley rats (CD-IGS rats, strain 001; 226-250 g) purchased from Charles River Laboratories (Wilmington, MA, USA). All rats had ad libitum access to food and water and were kept on a 12 h light/12 h dark cycle. Animals were individually housed in a temperature (22±1° C.) and humidity (57±4%) controlled room. All body weight measurements were taken just prior to the start of the dark cycle.
# (§1) Male Sprague Dawley rats were fed 60% HF diet (D12492; Research Diets, Inc; New Brunswick, NJ; 5.21 kcal/g) for 16 weeks prior to the start of the study. Rats were then singly house in BioDAQ cages (Research Diets, Inc.; New Brunswick, NJ) and allowed to acclimate to their new environment for 10 days. Baseline measures of body weight, food intake and water intake were taken for one week to balance the groups and create feeding pairs. Each group (n=6 animals/group) averaged 714.47±81.6 g at baseline (Table 3).
# (§2) Effects of ASK2131 were compared to a vehicle-treated group, OXT-treated group, as well as a pair-fed control group. Three days of baseline measures were taken before subcutaneous treatment administration began on day 4 of the study. Assessments were made to body weight, food intake and water intake. ASK2131 was administered at 50 nmol/kg throughout the entire study period. […] OXT-treated animals were started at 50 nmol/kg dose for two days, followed by 150 nmol/kg, then 300 nmol/kg, until ending at 600 nmol/kg for the remainder of the study.
# [8] = iv, rat; marked [2]; cited from earlier work
# [9] = intranasal; in words; cited from earlier work
# [10] = cited from earlier work; remark: listed apart in the source
# [11] = in words; cited from earlier work; remark: listed apart in the source
# [12] = test system: OXT receptors; conditions: prolonged OXT treatment, in words, cited from earlier work
# [13] = Blood parameters after 22-day treatment of DIO rats; format: in vivo, male Sprague Dawley rats; conditions: 22 days sc, mean ± SEM, OXT n=4
# From the text: as §1, §2
# Cardiac puncture was used to collect blood for analysis 2 h post final injection. Commercially available enzyme-linked immunosorbent assays (ELISA) were used for quantitative assessment of leptin (cat. #EZRL-83K; MilliporeSigma, Burlington, MA, USA), insulin (cat. #EZRMI-13K; MilliporeSigma, Burlington, MA, USA), and adiponectin (cat. #EZRAPD-62K MilliporeSigma, Burlington, MA, USA). Serum samples were diluted 1:500 for the adiponectin ELISA using the sample diluent provided with the kit. All ELISAs were completed following the manufacturers recommendations. Levels of glucose, cholesterol (total, HDL, and calculated LDL), triglycerides, ALT, and AST were determined in the serum on a Modular P chemistry analyzer (Roche Diagnostics, Risch-Rotkreuz, Switzerland) by the University of Washington Nutrition and Obesity Research Center's Analytic Core (Seattle, WA, USA).
# [14] = ELISA, 2 h post final injection
compound,measurement,setting,value
"CCCCCCCCCCCCCCCC(=O)NCCOCCOCCOCCOCCOCCOCCOCCOCCC(=O)NCCCC[C@H](NC(=O)CNC(=O)[C@@H]1CSSC[C@H](N)C(=O)N[C@@H](Cc2ccc(O)cc2)C(=O)N[C@@H]([C@@H](C)CC)C(=O)N[C@@H](CCC(N)=O)C(=O)N[C@@H](CC(N)=O)C(=O)N1)C(=O)NCC(N)=O [ASK1476] (HELM PEPTIDE1{C.Y.I.Q.N.C.G.K.G.[am]}|PEPTIDE2{[CCCCCCCCCCCCCCCC(=O)[*:2]].[O=C(CCOCCOCCOCCOCCOCCOCCOCCOCCN[*:1])[*:2]]}$PEPTIDE1,PEPTIDE2,8:R3-2:R2|PEPTIDE1,PEPTIDE1,1:R3-6:R3$$$V2.0)","reduction in caloric intake, greatest anorectic effect",[1]; 300 nmol/kg/d,~ 34%
same,response in a prior study,[2],U-shaped response
CC[C@H](C)[C@@H]1NC(=O)[C@H](Cc2ccc(O)cc2)NC(=O)[C@@H](N)CSSC[C@@H](C(=O)N2CCC[C@H]2C(=O)N[C@@H](CC(C)C)C(=O)NCC(N)=O)NC(=O)[C@H](CC(N)=O)NC(=O)[C@H](CCC(N)=O)NC1=O [OXT],T1/2,[3],30 min
same,Tmax,[3],15 min
same,free Cmax,[3],191 nM
same,Cmax,[3]; total,216 nM
same,"food intake, energy expenditure, weight gain",[4],"reduces food intake, enhances energy expenditure, and prevents or reduces weight gain"
same,amygdala activation,[5],significant decrease in amygdala activation
same,change in body weight,[6]; after a single dose of 1000 μg (1000 nmol),0.01%
same,decrease in food intake,[6]; single injection of 1000 μg (1000 nmol),12%
same,Post-treatment body weight,"[7]; 22 days sc, ASK2131 50 nmol/kg, OXT titrated 50 to 600 nmol/kg, mean ± SEM",719 ± 20 g
same,% change in body weight,"[7]; 22 days sc, ASK2131 50 nmol/kg, OXT titrated 50 to 600 nmol/kg, mean ± SEM, superscripts b: p<0.01, c: p<0.001 vs vehicle, d: p<0.001 vs OXT",0.1 ± 1 ^b %
same,reduction in food intake compared to vehicle-treated group,"[7]; OXT titrated to 600 nmol/kg, 95% CI 0.2550 to 40.59, p=0.0464, in words",did not exhibit a significant reduction in food intake
same,weight loss vs. vehicle,"[7]; end of treatment, OXT titrated to 600 nmol/kg",5%
same,"body weight, PMD vs vehicle","[7]; treatment day 9, after 8 days, OXT titrated, 95% CI −5.80 to −0.43%, p=0.014",−3.12%
same,CLplasma,[8],17.1 mL/min/kg
same,T1/2,[8],7.2 min
same,Vd,[8],0.085 L/kg
same,body weight in obese humans,[9],shown to reduce body weight in obese humans
same,dose response in human trials,[9],U-shaped response
same,"reduction in caloric intake, maximum effect",[1]; 1200 nmol/kg/d,~ 36%
same,weight loss through energy expenditure,[10]; in words,elicits weight loss through increases in energy expenditure
same,change in body weight,[10]; one month: two weeks at 0.2 mg/kg then two weeks at 0.4 mg/kg,3.3%
same,blood-brain barrier passage,[11],does not cross the blood-brain barrier
same,desensitization of the OXT receptors,[12]; in vitro,shown to promote desensitization of the OXT receptors in vitro
same,OXTR binding,[12],reductions of OXTR binding
same,"LDL, calculated",[13]; Calculated LDL = Cholesterol − (HDL + Triglycerides/5),22 ± 2 mg/dL
same,Adiponectin,[13]; [14],60.8 ± 3.9 ng/mL
same,Insulin,[13]; [14],7.2 ± 2.1 ng/mL
same,Leptin,[13]; [14],54.9 ± 7.9 ng/mL
same,ALT,[13]; serum 2 h post final injection,40 ± 5 U/L
same,AST,[13]; serum 2 h post final injection,128 ± 22 U/L
same,Glucose,[13]; serum 2 h post final injection,203 ± 13 mg/dL
same,HDL,[13]; serum 2 h post final injection,25 ± 2 mg/dL
same,Triglycerides,[13]; serum 2 h post final injection,145 ± 7 mg/dL
same,Cholesterol,"[13]; serum 2 h post final injection, superscript b: p<0.01 vs vehicle",76 ± 3 mg/dL
